Consider one compound from patent US9539256B2 (THE BOARD OF REGENTS OF THE UNIVERSITY OF TEXAS SYSTEM, priority 2012, dated 2017).

Entries after “also recorded” stand apart in the source; their conditions may differ.

One assay concerns pSTAT3 Y705. Nature of the assay: Leptin signaling in organotypic brain slice cultures, Western blotting. In kind it is cell-based, mice. The following applies: basal state and in response to leptin stimulation. The protocol:
(§1) FIGS. 17A-17B. Pharmacological inhibition of EPAC reduces plasma leptin and enhances leptin signaling in hypothalamus (A) Western blotting of pSTAT3 Y705, total STAT3, SOCS3, SHP2 and α-tubulin in organotypic brain slices at hypothalamus level treated with leptin with or without EPAC specific inhibitor. (B) Plasma leptin levels of 8-week-old wild-type mice treated 3 weeks with vehicle or ESI-09 (50 mg/kg).
(§2) To explore the feasibility of increasing leptin sensitivity by targeting Epac1 using small molecules, organotypic brain slice cultures were prepared from 11-day old wild-type C57BL/6 mice. After 7 days ex vivo culture, treatment of the brain tissue with the Epac specific antagonist ESI-09 led to an enhanced pSTAT3 Y705 level both at the basal state and in response to leptin stimulation. […] These pharmacological data are in agreement with results obtained using Epac1 KO mice and further confirm that inhibition of Epac1 enhances leptin signaling in the hypothalamus. To further investigate the therapeutic potential of this small molecule, wild-type mice were with ESI-09 (50 mg/kg) or vehicle (corn oil) by oral gavage for 3 weeks.

The next assay has as its system Plasma leptin. Briefly: Plasma leptin of wild-type mice after 3 weeks treatment. In kind it is in vivo. As to conditions: 50 mg/kg oral gavage for 3 weeks; relative to vehicle. The protocol:
as §1, §2

In a further assay the test system is MIA PaCa-2. Nature of the assay: Orthotopic MIA PaCa-2 pancreatic cancer metastasis model. Type of assay: in vivo. As to conditions: athymic nude mice; 50 mg/kg per day, oral gavage; weekly bioluminescence imaging; 50 mg/kg/day. The protocol:
FIG. 14. ESI-09 inhibits PDA metastasis in vivo. MIA PaCa-2 stably expressing luciferase was orthotopically implanted into the pancreas of athymic nude mice. The mice were randomly divided into two groups and treated with vehicle or ESI-09 (50 mg/kg, oral gavage), respectively. The growth and metastasis of the tumors were monitored by weekly bioluminescence imaging using the IVIS bioluminescence imaging system.
It has been recently reported that EPAC1 is over-expressed in pancreatic adenocarcinoma (Lorenz et al. (2008) Pancreas 37: 102-103). However, the functional role of EPAC1 elevation in this neoplasm is not clear. The inventors sought to employ ESI-09 to determine the role of EPAC1 signaling in pancreatic cancer. […] In order to determine if the observed impact on cell migration is EPAC1 specific, the effect of suppressing EPAC1 expression on AsPC-1 and PANC-1 migration using RNAi was examined. […] To further determine how ESI-09 inhibits PDA cell migration and invasion, a cell adhesion assay was performed using a collagen I matrix. […] To determine the in vivo anti-metastatic effect of ESI-09, MIA PaCa-2 stably expressing luciferase were orthotopically implanted into the pancreas of athymic nude mice. […] The growth and metastasis of the tumors were monitored by weekly bioluminescence imaging using the IVIS bioluminescence imaging system.

In another assay the test system is AsPC-1 and PANC-1 cells. Briefly: Cell adhesion assay on collagen I matrix. In kind it is cell-based. As to conditions: pre-treatment 5 minutes, 10 μM 007-AM. The protocol: FIG. 13 ESI-09 inhibits EPAC1-mediated adhesion of PDA cells on collagen I. AsPC-1 and PANC-1 cells were stimulated with vehicle or 10 μM 007-AM after treatment with the indicated concentrations of ESI-09 for 5 minutes. Bars represent mean±s.d.
It has been recently reported that EPAC1 is over-expressed in pancreatic adenocarcinoma (Lorenz et al. (2008) Pancreas 37: 102-103). However, the functional role of EPAC1 elevation in this neoplasm is not clear. The inventors sought to employ ESI-09 to determine the role of EPAC1 signaling in pancreatic cancer. […] In order to determine if the observed impact on cell migration is EPAC1 specific, the effect of suppressing EPAC1 expression on AsPC-1 and PANC-1 migration using RNAi was examined. […] To further determine how ESI-09 inhibits PDA cell migration and invasion, a cell adhesion assay was performed using a collagen I matrix. […] To determine the in vivo anti-metastatic effect of ESI-09, MIA PaCa-2 stably expressing luciferase were orthotopically implanted into the pancreas of athymic nude mice. The mice were randomly divided into two groups and treated with vehicle or ESI-09 (50 mg/kg per day, oral gavage), respectively. The growth and metastasis of the tumors were monitored by weekly bioluminescence imaging using the IVIS bioluminescence imaging system.

Take `CC(C)(C)c1cc(C(=O)C(C#N)=NNc2cccc(Cl)c2)no1` [ESI-09, 3-(5-Tert-Butyl-Isoxazol-3-Yl)-2-[(3-Chlorophenyl)-Hydrazono]-3-Oxo-Propionitrile]: the “pSTAT3 Y705 level” value in the assay with pSTAT3 Y705 was “enhanced”. In addition, the Plasma leptin entry with Plasma leptin is on record as “significantly reduced”. In addition, the PDA metastasis result with MIA PaCa-2 is on record as “reduced; also recorded: inhibits”. For the same compound, the “007-AM induced cell adhesion” value with AsPC-1 and PANC-1 cells was “decreased 007-AM induced cell adhesion dose-dependently; also recorded: inhibits”.
